Test system: S.D. line male rats
Assay: Antianxiety effect, water drinking under punishment (Vogel)
Format: in vivo, rat
Set-up: Antianxiety effect / Antianxiety effect, longevity: unit not given here
Details: for change in vivo at 20 mg/kg: Rattus norvegicus, po, read-out: Antianxiety effect, Efficacy
[1] = peroral 20 mg/kg, 0.5 h after administration
[2] = peroral 20 mg/kg, 2.0 h after administration
[3] = peroral 20 mg/kg, 4.0 h after administration

| Structure (SMILES) | change in vivo at 20 mg/kg (peroral 20 mg/kg) | Antianxiety effect, longevity [1] | Antianxiety effect, longevity [2] | Antianxiety effect, longevity [3] | Antianxiety effect (peroral 10 mg/kg) | Antianxiety and antidepressant effects (peroral 10 mg/kg, Table 6) | Antianxiety effect (peroral 20 mg/kg) |
| --- | --- | --- | --- | --- | --- | --- | --- |
| O=C(NCCN1CCN(c2ncccn2)CC1)C12CC3CC(CC(C3)C1)C2 [WY-50324, reference compound] | 46.9 ± 6.3% | 57.8 | 24.8 | 11.2 | – | – | – |
| Cc1cccc2c1OC(CNCCNC(=O)C13CC4CC(CC(C4)C1)C3)CO2 (centres unmarked) [Compound 1, N-{[2-(8-methyl-1,4-benzodioxan-2-ylmethyl)amino]ethyl}tricyclo[3,3,1,1^3, ^7]decane-1-carboxyamide] | 85.4 ± 10.3% | 52.8 | 48.2 | 29.5 | 42.4 ± 2.1 | superiority | better effects than MDL-73005 |
